This test concerns the target T1, human Bradykinin B1 receptor (Homo sapiens, UniProt P46663).
T1 construct: host or cells: CHO-K1
T1 sequence (P46663 1-353): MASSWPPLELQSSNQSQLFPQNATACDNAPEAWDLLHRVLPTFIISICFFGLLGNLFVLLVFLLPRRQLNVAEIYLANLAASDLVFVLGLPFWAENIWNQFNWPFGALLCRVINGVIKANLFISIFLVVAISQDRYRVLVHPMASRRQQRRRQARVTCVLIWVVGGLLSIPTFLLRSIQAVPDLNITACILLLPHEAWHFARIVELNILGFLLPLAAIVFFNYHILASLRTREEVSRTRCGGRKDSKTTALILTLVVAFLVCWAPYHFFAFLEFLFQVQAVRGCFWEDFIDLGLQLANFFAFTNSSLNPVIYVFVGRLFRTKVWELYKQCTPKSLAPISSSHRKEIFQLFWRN
In words: Calcium flux assay (FLIPR), CHO-K1 cells expressing human Bradykinin B1 receptor, absence of 0.1% BSA (hB1 free IC50). It is filed as cell-based. The conditions noted are these: absence of 0.1% BSA in assay buffer. On the procedure: The potency to inhibit the Bradykinin B1 receptor was determined for the Compound Examples of this invention in a cell-based fluorescent calcium-mobilisation assay. The assay measures the ability of Compound Examples to inhibit Bradykinin B1 receptor agonist-induced increase of intracellular free Ca^2+ in the cell line expressing Bradykinin B1 receptor. Specifically, calcium indicator-loaded cells are pre-incubated in the absence or presence of different concentrations of Compound Examples followed by the stimulation with a selective Bradykinin B1 receptor agonist peptide. The change of the intracellular Ca^2+ concentration is monitored with a fluorescent plate reader FLIPR^TETRA® (Molecular Devices).
Calcium Flux Assays (FLIPR) with Cells Expressing Human Bradykinin B1 Receptor (hB1)
CHO-K1 cell line expressing human Bradykinin B1 receptor is purchased from Euroscreen (Gosselies, Belgium, with reference name hB1-D1). The cells are grown in Nutrient Mixture Ham's F12 (Sigma) containing 10% Foetal bovine serum (Sigma) and 400 μg/mL G418 (Sigma), 5 μg/mL puromycin (Sigma).
The effect of BSA on the potency of endothelin receptor antagonists have been described in the prior art (Wu-Wong, J. R. et al. (1997), JPET 281: 791-798). The teaching can be applied in analogy to testing the potency of Bradykinin B1 receptor antagonist in the FLIPR assays.
For the calcium flux assay, 80% confluent cells are detached from the culture vessels with Versene (Gibco), and seeded into 384-well plates (Cell binding Surface; Corning, NY; #3683) at a density of 15,000 cells per well. Cells are seeded in a volume of 50 μL in medium without antibiotics and incubated overnight in a humidified atmosphere with 5% CO2 at 37° C. […] The calcium indicator loaded cells are incubated at 37° C. for 2 hrs. Extracellular dye is then removed and each well is filled with 45 μL of assay buffer. Cell plates are kept in dark until used. Compound examples are assayed at 8 concentrations in triplicate. Serial 10-fold dilutions in 100% DMSO are made at a 100-times higher concentration than the final concentration, and then diluted 1:10 in assay buffer. 5 μL of each diluted compound is added to the well of cell plates (yielding final concentration with 1% DMSO), and incubated for 30 min at 28° C. before the addition of Bradykinin B1 receptor agonist on the FLIPR instrument.
The addition of agonist 20 μl per well to the assay plate is carried out on the FLIPR instrument while continuously monitoring Ca2+-dependent fluorescence at 538 nm. A peptide antagonist Lys-(Des-Arg-Leu)-Bradykinin (Bachem, Brackley) at 20 µM is used to determine the full inhibition as control.
Peak fluorescence is used to determine the response to agonist obtained at each concentration of Compound Examples by the following equation: % Response=100*(RFU(compound)−RFU(control))/(RFU(DMSO)−RFU(control))
RFU means relative fluorescence units.
Control means full inhibition by the peptide antagonist Lys-(Des-Arg-Leu)-Bradykinin at 20 µM.
The response values are plotted against the logarithm of the compound concentrations. The Compound Examples are tested in triplicates per plate and mean values are plotted in Excel XLfit to determine IC50 values, percentage of maximal inhibition and the Hill slopes.
A general note: Calcium flux is commonly read through the fluorescence of an indicator in the cells.

SMILES strings stand for the structures. pIC50: −log10 of the molar value.

This note sets out measurements from patent US12023319B2, “Carboxylic acid aromatic amides” (priority 2016, dated 2024).

Broadly, the pIC50 is the negative decadic logarithm of the IC50, by convention in mol/L.

Take `O=C(O)c1cc(NC(=O)C2(c3ccc(C(F)(F)F)cc3F)CC2)cc(F)c1-c1cnc(C2CCC2)s1` [Example 168, 2-(2-Cyclobutyl-1,3-thiazol-5-yl)-3-fluoro-5-[({1-[2-fluoro-4-(trifluoromethyl)phenyl]cyclopropyl}carbonyl)amino]benzoic acid]: the negative-log IC50 (pIC50) is 8.48. Under `Cc1cc(NC(=O)C2(c3ccc(C(F)(F)F)cc3F)CC2)cc(C(=O)O)c1-c1ccc(C(F)(F)F)nc1` [Example 111, 5-[({1-[2-Fluoro-4-(trifluoromethyl)phenyl]cyclopropyl}carbonyl)amino]-3-methyl-2-[6-(trifluoromethyl)pyridin-3-yl]benzoic acid] stands 5.62; under `Cc1cc(NC(=O)C2(c3ccc(OC(F)(F)F)cc3F)CC2)cc(C(=O)O)c1-c1ccc(C(F)F)nc1` [Example 110, 2-[6-(Difluoromethyl)pyridin-3-yl]-5-[({1-[2-fluoro-4-(trifluoromethoxy)phenyl]cyclopropyl}carbonyl)amino]-3-methylbenzoic acid], 6.24. Under `O=C(O)c1cc(NC(=O)C2(c3ccc(C(F)(F)F)cc3F)CC2)cc(F)c1-c1cnn(CC2CC2)c1` [Example 126, 2-[1-(Cyclopropylmethyl)-1H-pyrazol-4-yl]-3-fluoro-5-[({1-[2-fluoro-4-(trifluoromethyl)phenyl]cyclopropyl}carbonyl)amino]benzoic acid] stands 7.85. Under `O=C(O)c1cc(NC(=O)C2(c3ccc(C(F)(F)F)cc3F)CC2)ccc1-n1cc(C2CCC2)cn1` [Example 129, 2-(4-Cyclobutyl-1H-pyrazol-1-yl)-5-[({1-[2-fluoro-4-(trifluoromethyl)phenyl]cyclopropyl}carbonyl)amino]benzoic acid] stands 6.21; under `CC1(Cn2cc(-c3ccc(NC(=O)C4(c5ccc(OC(F)(F)F)cc5F)CC4)cc3C(=O)O)cn2)CC1` [Example 152, 5-[({1-[2-Fluoro-4-(trifluoromethoxy)phenyl]cyclopropyl}carbonyl)amino]-2-{1-[(1-methylcyclopropyl)methyl]-1H-pyrazol-4-yl}benzoic acid], 8.09; under `O=C(O)c1cc(NC(=O)C2(c3ccc(Cl)cc3F)CC2)ccc1-c1cnc(C2CCC2)s1` [Example 146, 5-({[1-(4-Chloro-2-fluorophenyl)cyclopropyl]carbonyl}amino)-2-(2-cyclobutyl-1,3-thiazol-5-yl)benzoic acid], 8.43. As for `CCC(F)(F)c1ccc(-c2ccc(NC(=O)C3(c4ccc(OC(F)(F)F)cc4)CC3)cc2C(=O)O)cn1` [Example 22, 2-[6-(1,1-Difluoropropyl)pyridin-3-yl]-5-[({1-[4-(trifluoromethoxy)phenyl]cyclopropyl}carbonyl)amino]benzoic acid], the pIC50 is 6.54. Under `CC(C)Cn1cc(-c2ccc(NC(=O)C3(c4ccc(F)cc4F)CC3)cc2C(=O)O)cn1` [Example 116, 5-({[1-(2,4-Difluorophenyl)cyclopropyl]carbonyl}amino)-2-(1-isobutyl-1H-pyrazol-4-yl)benzoic acid] stands 6.68. Under `CCC(F)(F)c1ccc(-c2c(C)cc(NC(=O)C3(c4ccc(C(F)(F)F)cc4F)CC3)cc2C(=O)O)cn1` [Example 112, 2-[6-(1,1-Difluoropropyl)pyridin-3-yl]-5-[({1-[2-fluoro-4-(trifluoromethyl)phenyl]cyclopropyl}carbonyl)amino]-3-methylbenzoic acid] stands 6.62; under `O=C(O)c1cc(NC(=O)C2(c3ccc(OC(F)(F)F)cc3F)CC2)ccc1-c1cnc(C2CCC2)s1` [Example 149, 2-(2-Cyclobutyl-1,3-thiazol-5-yl)-5-[({1-[2-fluoro-4-(trifluoromethoxy)phenyl]cyclopropyl}carbonyl)amino]benzoic acid], 8.49; under `CC(C)n1cc(-c2c(F)cc(NC(=O)C3(c4ccc(Cl)cc4F)CC3)cc2C(=O)O)cn1` [Example 140, 5-({[1-(4-Chloro-2-fluorophenyl)cyclopropyl]carbonyl}amino)-3-fluoro-2-(1-isopropyl-1H-pyrazol-4-yl)benzoic acid], 7.68. Under `CCn1cc(-c2ccc(NC(=O)C3(c4ccc(C(F)(F)F)cc4F)CC3)cc2C(=O)O)cn1` [Example 68, 2-(1-Ethyl-1H-pyrazol-4-yl)-5-[({1-[2-fluoro-4-(trifluoromethyl)phenyl]cyclopropyl}carbonyl)amino]benzoic acid] stands 7.44; under `Cc1ccc(C2(C(=O)Nc3ccc(-c4cnn(CC(C)C)c4)c(C(=O)O)c3)CC2)c(F)c1` [Example 118, 5-({[1-(2-Fluoro-4-methylphenyl)cyclopropyl]carbonyl}amino)-2-(1-isobutyl-1H-pyrazol-4-yl)benzoic acid], 6.89; under `Cc1ccc(C2(C(=O)Nc3ccc(-c4ccc(C(C)(F)F)nc4)c(C(=O)O)c3)CC2)c(F)c1` [Example 30, 2-[6-(1,1-Difluoroethyl)pyridin-3-yl]-5-({[1-(2-fluoro-4-methylphenyl)cyclopropyl]carbonyl}amino)benzoic acid], 6.39. On to `Cc1ccc(C2(C(=O)Nc3ccc(-c4cnn(C5CCC5)c4)c(C(=O)O)c3)CC2)c(F)c1` [Example 80, 2-(1-Cyclobutyl-1H-pyrazol-4-yl)-5-({[1-(2-fluoro-4-methylphenyl)cyclopropyl]carbonyl}amino)benzoic acid], for which the negative-log IC50 (pIC50) is 6.92. Under `O=C(O)c1cc(NC(=O)C2(c3ccc(C(F)(F)F)cc3F)CC2)ccc1-c1cnc(C2CCC2)s1` [Example 148, 2-(2-Cyclobutyl-1,3-thiazol-5-yl)-5-[({1-[2-fluoro-4-(trifluoromethyl)phenyl]cyclopropyl}carbonyl)amino]benzoic acid] stands 8.47; under `CCC(F)(F)c1ccc(-c2c(C)cc(NC(=O)C3(c4ccc(OC(F)(F)F)cc4F)CC3)cc2C(=O)O)cn1` [Example 113, 2-[6-(1,1-Difluoropropyl)pyridin-3-yl]-5-[({1-[2-fluoro-4-(trifluoromethoxy)phenyl]cyclopropyl}carbonyl)amino]-3-methylbenzoic acid], 6.92; under `O=C(O)c1cc(NC(=O)C2(c3ccc(C(F)(F)F)cc3F)CC2)ccc1-c1cnn([C@@H]2CCOC2)c1` [Example 83, 5-[({1-[2-Fluoro-4-(trifluoromethyl)phenyl]cyclopropyl}carbonyl)amino]-2-{1-[(3R)-tetrahydrofuran-3-yl]-1H-pyrazol-4-yl}benzoic acid], 6.25. Under `CCn1cc(-c2c(F)cc(NC(=O)C3(c4ccc(C(F)(F)F)cc4F)CC3)cc2C(=O)O)cn1` [Example 138, 2-(1-Ethyl-1H-pyrazol-4-yl)-3-fluoro-5-[({1-[2-fluoro-4-(trifluoromethyl)phenyl]cyclopropyl}carbonyl)amino]benzoic acid] stands 7.74; under `O=C(O)c1cc(NC(=O)C2(c3ccc(C(F)(F)F)cc3F)CC2)ccc1-c1cn(C2CCC2)nc1F` [Example 45, 2-(1-Cyclobutyl-3-fluoro-1H-pyrazol-4-yl)-5-[({1-[2-fluoro-4-(trifluoromethyl)phenyl]cyclopropyl}carbonyl)amino]benzoic acid], 7.26.

For the compound `O=C(O)c1cc(NC(=O)C2(c3c(F)cccc3Cl)CC2)ccc1-c1cnn(C2CCC2)c1` [Example 62, 5-({[1-(2-Chloro-6-fluorophenyl)cyclopropyl]carbonyl}amino)-2-(1-cyclobutyl-1H-pyrazol-4-yl)benzoic acid], the pIC50 was 7.05.
